According to article PMC7203153, “Rational identification and characterisation of peptide ligands for targeting polysialic acid” (Scientific Reports, 2020):
Marks after values point to notes of the source that are not given here. Where a SMILES comes first, the peptide text is derived from it.

Assay: Peptide microarray affinity screening against α-2,8-PSA (colominic acid)
Type: binding, Escherichia coli
Conditions: 10 μM CA, pH 7.4
Method: (§1) Peptide library synthesis, microarray preparation, and microarray screening were performed as described previously[25] with the following specifications. Siglec-related sequences were N-terminally acetylated to match the charge of the corresponding protein fragment. All peptides were printed in triplicate (60 nL spots), and each initial affinity screening was carried out at least three times. Screening was conducted with 10 μM colominic acid (CA; 5 mL per microarray), the Escherichia coli homolog of α-2,8-PSA identical in structure to human-derived PSA[67], and with antibody-based chemiluminescent detection of CA. For selectivity screening, microarrays were challenged with 10 μM CA with 0, 0.1, 1, and 10 μM α-2,8/9-PSA in separate conditions (5 mL total volume each), where molar concentrations were based on molecular weight estimation of synthesized 2,8/9-PSA (details on α-2,8/9-PSA production, purification, and analysis are provided in Supplementary Information). Selectivity screening with monomeric sialic acid was conducted with mass and molar equivalents of N-acetylneuraminic acid (Rose Scientific, Ltd.) along with 10 μM CA (5 mL total volume each). The mass equivalent amount of sialic acid (specifically, 970 μM sialic acid for a given volume of 10 μM CA) was calculated for CA of an average degree of polymerization of 100. For study of pH-dependent binding, affinity screening with CA was performed using PBS buffers of pH 6.0, 7.0, 7.4, and 8.0 (10 mM phosphate, 100 mM NaCl). The impact of NaCl on peptide binding was assessed at pH 7.4 with 0, 100, and 200 mM NaCl.
Microarray image and data analysis was performed as described. […] Of the triplicate experiments used to generate mean microarray affinity intensities in standard conditions (within each of which 762 peptides were represented in triplicate), 225 out of 762 values in one of these three experiments were derived from raw data previously reported, but were alternatively analysed as stated. Peptide isoelectric points were calculated with the EMBOSS iep program.

Compound | change in microarray binding with 200 mM vs 100 mM NaCl
CC(=O)N[C@@H](CCC(=O)O)C(=O)N[C@@H](Cc1c[nH]cn1)C(=O)NCC(=O)NCC(=O)NCC(=O)N[C@@H](CC(C)C)C(=O)NCC(=O)N[C@@H](CC(C)C)C(=O)NCC(=O)N[C@@H](C)C(=O)N[C@@H](C)C(=O)N[C@@H](CC(C)C)C(=O)NCC(=O)N[C@@H](C)C(=O)NCC(N)=O [I-P264] (Ac-EHGGGLGLGAALGAG-NH2) | did not display any change in binding
CC(=O)N[C@@H](CCCCN)C(=O)N[C@@H](CC(=O)O)C(=O)N1CCC[C@H]1C(=O)N[C@@H](CO)C(=O)N[C@@H](Cc1ccc(O)cc1)C(=O)N[C@@H](CO)C(=O)N[C@@H](CC(C)C)C(=O)N[C@@H](CCC(N)=O)C(=O)N[C@H](C(=O)N[C@@H](CCC(N)=O)C(=O)N[C@@H](CCCNC(=N)N)C(=O)N[C@@H](CCC(N)=O)C(=O)N[C@H](C(=O)N1CCC[C@H]1C(=O)N[C@H](C(N)=O)C(C)C)C(C)C)C(C)C [I-P2] (Ac-KDPSYSLQVQRQVPV-NH2) | did not display any change in binding

Assay: Competitive microarray selectivity screening with α-2,8/9-PSA
Type: binding, Escherichia coli
Conditions: 10% competing α-2,8/9-PSA
Method: Competitive microarray screening with α-2,8/9-PSA was conducted in order to assess selective binding of peptides to α-2,8-PSA. The definition of percent selectivity at 10% competing glycan was applied to enable selectivity comparisons amongst a larger set of peptides[25] […] However, the use of an isomeric polymer is a more stringent assessment of selectivity; here, selective binding is guided by three-dimensional conformation and not additionally by differences in functional groups.
as §1, with “NaCl. […]” for “NaCl.”

Compound | selectivity mark in Table 1
CC(=O)N[C@@H](CC(N)=O)C(=O)N[C@@H](CCCNC(=N)N)C(=O)N[C@H](C(=O)N[C@H](C(=O)N[C@@H](CC(C)C)C(=O)N[C@@H](CCCNC(=N)N)C(=O)N[C@@H](CC(N)=O)C(=O)N[C@@H](CC(C)C)C(=O)NCC(=O)N[C@@H](CC(N)=O)C(=O)NCC(=O)N[C@H](C(=O)N[C@@H](CO)C(=O)N[C@@H](CC(C)C)C(=O)N1CCC[C@H]1C(N)=O)[C@@H](C)O)C(C)C)[C@@H](C)O [II-P336] (Ac-NRTVLRNLGNGTSLP-NH2) | II-P336* (Peptides with selectivity >80%)
AISSPLLKNPFRGGGS [II-P214, phage display screening peptide with W8K mutation] | II-P214* (Peptides with selectivity >80%)

Same assay, conditions: binding to 10 μM α-2,8-PSA (CA) with 10% competing α-2,8/9-PSA; ± SD of triplicate intra-assay measurements; SD

Compound | % selectivity
GRTSAKTGAPVATNN [I-P344, Siglec-11-derived peptide with P5A mutation] | 85 ± 8%
YSEIKIHTGQPLRGP [I-P321] | 85 ± 18%
LSNAFFLKVTALTKK [I-P59] | 52 ± 10%
NAFFLKVTALTKKPD [I-P60] | 70 ± 18%
FSRKGVSAQRTVRLR [I-P103] | 55 ± 11%
KGKGKGKGKGKGKGK [I-P378, de novo designed peptide with alternating Lys and Gly residues] | 60 ± 9%
GGKGGGKGGGKGGGK [I-P380, de novo peptide composed of lysine and glycine residues] | 56 ± 7%
GSGSGTDFTLKISRV [II-P35, peptide designed from mAb735] | 53 ± 6%
PGSGNTKYNEKFKGK [II-P77, peptide designed from mAb735] | 49 ± 5%
AALSPRRTRPSTSHF [I-P85] | 59 ± 5%
KGGGKGGGKGGGKGG [I-P379, de novo peptide composed of lysine and glycine residues] | 61 ± 7%
YWFKGRTSPKTGAPV [I-P23] | 43 ± 3%
WFKGKTSPKTGAPVA [I-P333, Siglec-11-derived peptide with R5K mutation] | 59 ± 2%
TLPAILQASGTRGGGS [II-P145, phage display screening peptide with S8A mutation] | 81 ± 16%
LKVTALTKKPDVYIP [I-P62] | 67 ± 17%
FRVKICRKEARKRAA [I-P278] | 43 ± 8%
LSPRRTRPSTSHFSV [I-P86] | 62 ± 10%
WFKGRTSPKTGAPVA [I-P330, Siglec-11-derived peptide] | 35 ± 1%
RKGVSAQRTVRLRVA [I-P104] | 45 ± 4%
VKICRKEARKRAAAE [I-P279] | 46 ± 12%
GRTSPKAGAPVATNN [I-P346, Siglec-11-derived peptide with T7A mutation] | 91 ± 15%
VDFSRKGVSAQRTVR [I-P102] | 59 ± 10%
WGPRTLGLELRGVRA [I-P143] | 37 ± 1%
KIHTGQPLRGPGFGL [I-P323] | 86 ± 8%
AISSPLLRNPFRGGGS [II-P213, phage display screening peptide with W8R mutation] | 66 ± 9%
VPYTFGGGTRLEIKG [II-P50, peptide designed from mAb735] | 71 ± 9%
QELHYASLSFQGLRL [I-P307] | 80 ± 14%

Assay: Fluorescence anisotropy (FA) assay of peptide–PSA binding
Design: species or system Escherichia coli
Conditions: FA titration; N-acetylated, C-terminally TAMRA-labelled peptide 20 nM; CA 0–1500 μM; PBS pH 7.4 (10 mM phosphate, 100 mM NaCl); 3 h, ~20 °C; four-parameter logistic fit; at least two independent experiments, at least triplicate; * = accuracy likely poor (SE > KD)
Method: Peptides (Table 2) were synthesized at >95% purity (confirmed with HPLC) by Biomatik (see Supplementary Information). All peptides were N-terminally acetylated and C-terminally labelled with tetramethylrhodamine dye (TAMRA). TAMRA was chosen as a label due to its pH insensitivity compared to FAM (fluorescein) and related dyes commonly used for fluorescence assays. Experiments were conducted in black 384-well plates with non-binding surface (NBS, Corning, Inc.) to minimize background binding and enhance signal-to-noise ratio in the fluorescence-based binding assay. Titrations were carried out through addition of TAMRA-labelled peptide (8 μL, final concentration 20 nM) to CA (72 μL, final concentrations 0–1500 μM) in PBS, pH 7.4 (10 mM phosphate, 100 mM NaCl), and solutions were incubated with agitation to equilibrium at room temperature (3 h, ~20 °C). Parallel and perpendicular intensities were subsequently measured at 530 nm excitation (band width 5 nm) and 580 nm emission (band width 20 nm) in fluorescence polarization mode with a Tecan Infinite M1000 Pro plate reader. Total fluorescence intensities were also measured as a control for fluorophore properties with target binding; fluorescence intensities of free peptide were determined to be approximately equivalent to intensities with peptide–CA mixtures. At higher concentrations of free CA (control with no peptide addition), attenuation of detected light differed in parallel and perpendicular planes, so respective intensities were subtracted from peptide–CA intensities prior to anisotropy calculations. […] Unique samples were screened in at least triplicate within each titration experiment, and each peptide titration was carried out at least twice. In experimental repeats, peptide locations on plates were varied to prevent location-specific effects, if any, and different combinations of peptides were assessed at once. Anisotropies were calculated from corrected parallel and perpendicular intensities, and values were fit to the four-parameter logistic binding model[70] in MATLAB. Prior to curve fitting, anisotropy values for each peptide were transformed through subtraction of minimum values to enhance comparison between peptides. The resulting translations in binding curves were identical, within error, to change in anisotropy curves obtained through subtraction of anisotropy of free labelled peptide. Bmax and KD values obtained were used in the calculation of Bmax/KD ratios for comparison to microarray intensity values, and the Pearson correlation coefficient (r) was determined.

Compound | Kd
CC[C@H](C)[C@H](NC(C)=O)C(=O)N[C@@H](Cc1ccc(O)cc1)C(=O)N1CCC[C@H]1C(=O)NCC(=O)N[C@@H](CO)C(=O)NCC(=O)N[C@@H](CC(N)=O)C(=O)N[C@H](C(=O)N[C@@H](CCCCN)C(=O)N[C@@H](Cc1ccc(O)cc1)C(=O)N[C@@H](CC(N)=O)C(=O)N[C@@H](CCC(=O)O)C(=O)N[C@@H](CCCCN)C(=O)N[C@@H](Cc1ccccc1)C(=O)N[C@@H](CCCCN)C(N)=O)[C@@H](C)O [II-P76] (Ac-IYPGSGNTKYNEKFK-NH2) | 1290 µM
CC(=O)N[C@@H](CC(N)=O)C(=O)N[C@@H](CCCNC(=N)N)C(=O)N[C@H](C(=O)N[C@H](C(=O)N[C@@H](CC(C)C)C(=O)N[C@@H](CCCNC(=N)N)C(=O)N[C@@H](CC(N)=O)C(=O)N[C@@H](CC(C)C)C(=O)NCC(=O)N[C@@H](CC(N)=O)C(=O)NCC(=O)N[C@H](C(=O)N[C@@H](CO)C(=O)N[C@@H](CC(C)C)C(=O)N1CCC[C@H]1C(N)=O)[C@@H](C)O)C(C)C)[C@@H](C)O [II-P336] (Ac-NRTVLRNLGNGTSLP-NH2) | 577 µM
CC(=O)N[C@@H](CCCCN)C(=O)N[C@@H](CC(=O)O)C(=O)N1CCC[C@H]1C(=O)N[C@@H](CO)C(=O)N[C@@H](Cc1ccc(O)cc1)C(=O)N[C@@H](CO)C(=O)N[C@@H](CC(C)C)C(=O)N[C@@H](CCC(N)=O)C(=O)N[C@H](C(=O)N[C@@H](CCC(N)=O)C(=O)N[C@@H](CCCNC(=N)N)C(=O)N[C@@H](CCC(N)=O)C(=O)N[C@H](C(=O)N1CCC[C@H]1C(=O)N[C@H](C(N)=O)C(C)C)C(C)C)C(C)C [I-P2] (Ac-KDPSYSLQVQRQVPV-NH2) | 405 µM

Same assay, conditions: PSA concentration 1500 µM; ± inter-assay SD, at least two independent experiments; SD

Compound | Non-adjusted anisotropy
CC(=O)N[C@@H](CCCCN)C(=O)N[C@@H](CC(=O)O)C(=O)N1CCC[C@H]1C(=O)N[C@@H](CO)C(=O)N[C@@H](Cc1ccc(O)cc1)C(=O)N[C@@H](CO)C(=O)N[C@@H](CC(C)C)C(=O)N[C@@H](CCC(N)=O)C(=O)N[C@H](C(=O)N[C@@H](CCC(N)=O)C(=O)N[C@@H](CCCNC(=N)N)C(=O)N[C@@H](CCC(N)=O)C(=O)N[C@H](C(=O)N1CCC[C@H]1C(=O)N[C@H](C(N)=O)C(C)C)C(C)C)C(C)C [I-P2] (Ac-KDPSYSLQVQRQVPV-NH2) | 35.8 ± 11.5

Same assay, conditions: from FA curve fits, among the peptides characterised with FA

Compound | Bmax/KD ratio (binding potential)
CC(=O)N[C@@H](CC(N)=O)C(=O)N[C@@H](CCCNC(=N)N)C(=O)N[C@H](C(=O)N[C@H](C(=O)N[C@@H](CC(C)C)C(=O)N[C@@H](CCCNC(=N)N)C(=O)N[C@@H](CC(N)=O)C(=O)N[C@@H](CC(C)C)C(=O)NCC(=O)N[C@@H](CC(N)=O)C(=O)NCC(=O)N[C@H](C(=O)N[C@@H](CO)C(=O)N[C@@H](CC(C)C)C(=O)N1CCC[C@H]1C(N)=O)[C@@H](C)O)C(C)C)[C@@H](C)O [II-P336] (Ac-NRTVLRNLGNGTSLP-NH2) | highest
